This is an account of results in ChEMBL document CHEMBL1133309, “Computational binding studies of human pp60c-src SH2 domain with a series of nonpeptide, phosphophenyl-containing ligands” (Bioorg Med Chem Lett, 2000).

SMILES strings stand for the structures.

The IC50 is the concentration that gives 50% inhibition.

Proto-oncogene tyrosine-protein kinase Src, sequence (P12931 2-536 limits assumed): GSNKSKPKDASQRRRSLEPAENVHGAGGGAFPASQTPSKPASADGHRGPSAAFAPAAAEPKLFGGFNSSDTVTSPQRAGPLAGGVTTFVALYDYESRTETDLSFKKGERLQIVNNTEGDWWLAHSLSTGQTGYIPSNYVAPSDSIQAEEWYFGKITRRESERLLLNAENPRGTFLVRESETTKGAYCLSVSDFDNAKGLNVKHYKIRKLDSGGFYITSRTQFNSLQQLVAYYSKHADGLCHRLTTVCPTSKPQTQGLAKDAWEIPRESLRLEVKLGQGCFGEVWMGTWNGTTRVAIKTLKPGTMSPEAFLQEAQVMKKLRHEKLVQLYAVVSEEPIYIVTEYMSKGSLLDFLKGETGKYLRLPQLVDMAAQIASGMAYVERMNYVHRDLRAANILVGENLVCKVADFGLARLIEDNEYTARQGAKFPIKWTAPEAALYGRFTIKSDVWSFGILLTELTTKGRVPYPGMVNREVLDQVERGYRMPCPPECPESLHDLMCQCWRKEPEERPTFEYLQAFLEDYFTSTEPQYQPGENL

The experiment addresses Proto-oncogene tyrosine-protein kinase Src (Homo sapiens, UniProt P12931). The experiment in a line: Binding affinity for Human pp60c-src SH2 domain.
`CC(=O)c1cc(CNC(=O)c2ccc(OP(=O)(O)O)cc2)ccc1OCC1CCCCC1`: the IC50 is 69 µM.
In the case of `CNC(=O)c1cc(CNC(=O)c2ccc(OP(=O)(O)O)cc2)ccc1OCC1CCCCC1` it was 30 µM; in that of `O=C(NCc1ccc(OCC2CCCCC2)cc1)c1ccc(OP(=O)(O)O)cc1`, more than 100 µM.
